The nature of data set [1]: Adjuvant-induced arthritis model in rat: Mechanical Allodynia test (MA, Von Frey). Format: in vivo. To be noted: SD rat, CFA-induced arthritis; PO 3 days post CFA; compared to Dexamethasone.
A short description of data set [2]: Metabolic stability in mouse liver microsomes (in vitro t1/2). Format: in vitro ADME. Particulars: for Mouse microsome t1/2, min / half-life at 2 µM: mouse liver microsomes 0.5 mg/mL, 2 μM compound; for Mouse microsome % 60 min: mouse liver microsomes; for half-life at 2 µM: read-out: Mouse microsome t1/2, min. The method in brief:
(§1)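 Test compound (2 μM final) was added to NADPH-supplemented microsomes at 0.5 mg/mL protein and sampled over 60 min (0–60 min time points). In vitro t1/2 was calculated as −0.693/k, with k the slope of ln percent parent remaining, measured by LC-MS/MS, against time.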

A short description of data set [3]: Adjuvant-induced arthritis model in rat: Difference of Weight Bearing test (DWB). Format: in vivo. Particulars: SD rat, CFA-induced arthritis; PO 3 days post CFA; compared to Dexamethasone.
Data set [4] deals with MCT4 (Homo sapiens (Human), UniProt O15427). Description: Assay 3: MCT4-mediated lactate transport in MDA-MB-231 breast cancer cells. Format: cell-based. To be noted: MDA-MB-231 cells; lactate transport. The method in brief:
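Read-out is BCECF fluorescence tracking the intracellular pH shift from MCT4-mediated lactate/H+ co-transport. Before measurement, MDA-MB-231 cells take up BCECF-AM for 5 min at 37° C, then are washed into Tyrode's Solution, pH 7.4.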

For data set [5], the target named is MCT1 (Homo sapiens (Human), UniProt P53985). Briefly: Assay 4: MCT1-mediated lactate transport in BT20 breast cancer cells. Type of data set: cell-based. Particulars: Table 27. The method in brief: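 Transport started with 10 mM L-lactate on BCECF-loaded BT20 cells in Tyrode's Solution, pH 7.4. Dye loading: BCECF-AM ester (30 mM DMSO stock), 5 min at 37° C, then one wash.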

Data set [6] can be described thus: Metabolic stability in rat liver microsomes (in vitro t1/2). Format: in vitro ADME. Particulars: for half-life at 2 µM: rat liver microsomes 0.5 mg/mL, 2 μM compound, read-out: Rat microsome t1/2, min; for Rat microsome % 60 min: rat liver microsomes. The method in brief: as §1
Data set [7] can be described thus: Pharmacokinetic assay in rat (IV 3 mg/kg, PO 10 mg/kg). Type of data set: in vivo. To be noted: Male Sprague-Dawley rat; for Rat F: oral bioavailability; for Rat F / half-life: PO 10 mg/kg; for half-life / Vd: plasma; for half-life: read-out: Rat t1/2 (converted); for Vd: volume of distribution, read-out: Rat Vss. The source says:
(§2) The following are assays that may be used to evaluate the pharmacokinetic properties of Formula (I) in mouse or rat. The assays follow a common procedure recited below.
(§3) 1. […] For PO (oral gavage), DMSO/PEG400 (10:90). Formulations freshly prepared on the day of dosing or prior to dosing. Storage at room temperature.
(§4) 2. Test Species: For Mouse: Male CD1 strain, approximately 6-8 weeks in age, approximately 20-30 g. For Rat: Male Sprague-Dawley strain, approximately 6-8 weeks in age, approximately 200-300 g.
(§5) 3. Dose Level: For IV, 3 mg/kg. For PO, 10 mg/kg.
(§6) 4. Number of animals: 3 per assay.
(§7) 5. PK time points: For IV (plasma): 5 min, 15 min, 1, 2, 4, 6, 8, 24 h post dose. For PO (plasma): 15 min, 30 min, 1, 2, 4, 6, 8, 24 h post dose.
(§8) 6. Blood Sample Collection and Processing. Blood was collected (˜0.2 mL per time point) from jugular vein. Blood of each sample was transferred into plastic micro centrifuge tubes containing anticoagulant of EDTA-K2. Blood samples were centrifuged at 2,000 g for 5 minutes at 4° C. to obtain plasma.
(§9) 7. Samples Analysis: Plasma samples were analyzed using LC/MS/MS method, and pharmacokinetic parameters (half-life: t1/2; oral bioavailability: F; volume of distribution: Vss).

Data set [8] in a line: Metabolic stability in human liver microsomes (in vitro t1/2). Format: in vitro ADME. Particulars: for half-life at 2 µM: human liver microsomes 0.5 mg/mL, 2 μM compound, read-out: Human microsome t1/2, min; for Human microsome % 60 min: human liver microsomes. The method in brief: as §1
On the technique in general: Liver microsomes are a subcellular fraction often used to study metabolism.

A short description of data set [9]: Pharmacokinetic assay in mouse (IV 3 mg/kg, PO 10 mg/kg). Type of data set: in vivo. Particulars: Male CD1 mouse; for Mouse F: oral bioavailability; for Mouse F / half-life: PO 10 mg/kg; for half-life / Vd: plasma; for half-life: read-out: Mouse t1/2 (converted); for Vd: volume of distribution, read-out: Mouse Vss.
Source text: as §2, §3, §4, §5, §6, §7, §8, §9

A value given as a limit tells only on which side of the number the result lay.

MCT4, sequence (O15427 whole entry, looked up): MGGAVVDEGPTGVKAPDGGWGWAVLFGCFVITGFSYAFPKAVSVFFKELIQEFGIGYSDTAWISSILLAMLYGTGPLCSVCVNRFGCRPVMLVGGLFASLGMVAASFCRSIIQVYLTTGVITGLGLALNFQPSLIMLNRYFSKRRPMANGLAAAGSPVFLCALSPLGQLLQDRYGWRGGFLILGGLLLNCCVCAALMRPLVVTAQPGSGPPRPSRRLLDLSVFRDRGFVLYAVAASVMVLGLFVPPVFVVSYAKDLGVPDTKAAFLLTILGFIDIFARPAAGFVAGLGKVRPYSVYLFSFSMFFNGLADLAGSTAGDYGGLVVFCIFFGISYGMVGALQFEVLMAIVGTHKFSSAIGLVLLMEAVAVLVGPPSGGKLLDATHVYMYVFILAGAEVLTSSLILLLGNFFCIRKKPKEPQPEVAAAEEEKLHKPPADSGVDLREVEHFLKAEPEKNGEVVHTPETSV
MCT4, sequence (P35613 whole entry partner, looked up): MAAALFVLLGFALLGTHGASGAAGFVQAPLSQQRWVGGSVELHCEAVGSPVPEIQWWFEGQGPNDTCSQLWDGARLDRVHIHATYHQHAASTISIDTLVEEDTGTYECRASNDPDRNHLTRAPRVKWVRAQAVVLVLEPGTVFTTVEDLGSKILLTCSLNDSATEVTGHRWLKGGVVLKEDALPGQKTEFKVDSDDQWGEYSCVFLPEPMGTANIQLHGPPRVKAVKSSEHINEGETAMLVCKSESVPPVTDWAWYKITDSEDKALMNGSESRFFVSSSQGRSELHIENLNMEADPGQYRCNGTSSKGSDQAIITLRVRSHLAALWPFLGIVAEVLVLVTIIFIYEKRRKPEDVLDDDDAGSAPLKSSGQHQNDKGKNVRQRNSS
MCT1, sequence (P53985 whole entry): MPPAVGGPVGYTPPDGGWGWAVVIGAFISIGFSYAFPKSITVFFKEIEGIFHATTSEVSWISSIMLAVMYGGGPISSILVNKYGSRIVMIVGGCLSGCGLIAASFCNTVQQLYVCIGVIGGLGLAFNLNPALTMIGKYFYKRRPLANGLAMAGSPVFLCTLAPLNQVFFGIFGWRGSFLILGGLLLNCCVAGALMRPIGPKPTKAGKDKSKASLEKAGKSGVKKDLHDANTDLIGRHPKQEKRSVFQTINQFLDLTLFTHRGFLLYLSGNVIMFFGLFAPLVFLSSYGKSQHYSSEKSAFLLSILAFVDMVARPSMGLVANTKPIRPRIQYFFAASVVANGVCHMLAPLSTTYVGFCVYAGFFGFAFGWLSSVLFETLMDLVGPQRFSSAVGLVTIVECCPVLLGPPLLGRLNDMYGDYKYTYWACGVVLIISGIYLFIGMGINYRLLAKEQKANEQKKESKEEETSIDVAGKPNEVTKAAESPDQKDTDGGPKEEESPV
MCT1, sequence (P35613 140-385 partner): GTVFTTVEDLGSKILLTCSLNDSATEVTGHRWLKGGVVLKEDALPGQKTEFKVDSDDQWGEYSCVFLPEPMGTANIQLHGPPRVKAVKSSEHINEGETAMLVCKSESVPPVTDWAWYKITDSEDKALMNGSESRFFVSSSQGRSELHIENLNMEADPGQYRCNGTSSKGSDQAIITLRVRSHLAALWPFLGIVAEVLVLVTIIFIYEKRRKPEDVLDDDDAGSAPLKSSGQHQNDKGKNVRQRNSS

Take `Cc1ccccc1-n1nc(COC(C)(C)C(=O)O)cc1-c1cccc(OC2CCC2)c1` [Example 161, 2-([5-(3-Cyclobutoxyphenyl)-1-(2-methyl-phenyl)-1H-pyrazol-3-yl]methoxy)-2-methylpropanoic acid]: the “Mechanical Allodynia (Von Frey), Minimal Efficacious Dose” value (from here on “Mechanical Allodynia (Von Frey)”) in data set [1] is at most 10 mg/kg. Besides, in data set [2], the “Mouse microsome t1/2, min” value was “∞” and the “Mouse microsome % 60 min” value is recorded as 99%. The “Difference in Weight Bearing, Minimal Efficacious Dose” value (from here on “Difference in Weight Bearing”) in data set [3] is reported as at most 10 mg/kg. Moreover, half-maximal inhibition in data set [4] (IC50) was put at 3.3 nM. Besides, the concentration for half-maximal inhibition (IC50) (in general, the point on the concentration scale where inhibition reaches its midpoint) in data set [5] stood at 22000 nM. In [6], the half-life at 2 µM is 4.32 h and the “Rat microsome % 60 min” value was found to be 80%. In addition, in data set [7], the “Rat F” value is recorded as 61%, the half-life was 5.7 h and the Vd worked out at 0.32 L/kg. In addition, in data set [8], the half-life at 2 µM amounted to 3.23 h and the “Human microsome % 60 min” value was 82%.
For the compound `CC(C)(OCc1cc(-c2cccc(OC3CCC3)c2)n(-c2ccccc2Cl)n1)C(=O)O` [Example 175, 2-([1-(2-Chlorophenyl)-5-(3-cyclobutoxy-phenyl)-1H-pyrazol-3-yl]methoxy)-2-methylpropanoic acid], the “Mechanical Allodynia (Von Frey)” value in data set [1] is reported as over 10 mg/kg. Also, in data set [2], the half-life at 2 µM amounted to 11.8 h and the “Mouse microsome % 60 min” value is recorded as 94%. The “Difference in Weight Bearing” value in [3] is on record as over 10 mg/kg. In data set [6], the half-life at 2 µM turned out to be 5.25 h and the “Rat microsome % 60 min” value stood at 87%. Moreover, in data set [7], the “Rat F” value was 48%, the half-life is 4.2 h and the Vd came out at 0.4 L/kg. In addition, in [8], the half-life at 2 µM stood at 3.53 h and the “Human microsome % 60 min” value came out at 83%.
As to `COc1cc(OC)cc(-c2cc(COC(C)(C)C(=O)O)nn2-c2ccccc2Cl)c1` [Example 179, 2-([1-(2-Chlorophenyl)-5-(3,5-dimethoxy-phenyl)-1H-pyrazol-3-yl]methoxy)-2-methylpropanoic acid], in data set [1], the “Mechanical Allodynia (Von Frey)” value is given as under 10 mg/kg. Moreover, in [2], the “Mouse microsome t1/2, min” value was “∞” and the “Mouse microsome % 60 min” value is 98%. Moreover, in data set [3], the “Difference in Weight Bearing” value is reported as at most 10 mg/kg. Moreover, the IC50 in data set [4] was found to be 13 nM. The same compound yielded an IC50 in data set [5] of over 100000 nM. Further, in [6], the half-life at 2 µM was 5.3 h and the “Rat microsome % 60 min” value was determined as 85%. Besides, in data set [7], the “Rat F” value was 76%, the half-life is 2.2 h and the Vd was 0.3 L/kg. For the same compound, in data set [8], the half-life at 2 µM came to 10.7 h and the “Human microsome % 60 min” value was 93%.
With `CCOc1cc(OCC)cc(-c2cc(COC(C)(C)C(=O)O)nn2-c2ccccc2Cl)c1` [Example 180, 2-([1-(2-Chlorophenyl)-5-(3,5-diethoxy-phenyl)-1H-pyrazol-3-yl]methoxy)-2-methylpropanoic acid], the “Mechanical Allodynia (Von Frey)” value in data set [1] was over 10 mg/kg. Moreover, in [2], the “Mouse microsome t1/2, min” value is recorded as “∞” and the “Mouse microsome % 60 min” value was 103%. For the same compound, the “Difference in Weight Bearing” value in data set [3] is recorded as over 10 mg/kg. The compound also had an IC50 in [4] of 2.9 nM. The compound also yielded an IC50 in [5] of 28000 nM. In addition, in data set [6], the half-life at 2 µM came out at 38.2 h and the “Rat microsome % 60 min” value is recorded as 98%. In addition, in [7], the “Rat F” value came out at 49%, the half-life was 4.4 h and the Vd is 0.39 L/kg. In addition, in data set [8], the half-life at 2 µM stood at 4.6 h and the “Human microsome % 60 min” value turned out to be 88%.
Consider `Cn1ncc2cccc(-n3nc(COC(C)(C)C(=O)O)cc3-c3cccc(OC4CC4)c3)c21` [Example 191, 2-([5-(3-Cyclopropoxyphenyl)-1-(1-methyl-1H-indazol-7-yl)-1H-pyrazol-3-yl]-methoxy)-2-methylpropanoic acid], for which, in data set [1], the “Mechanical Allodynia (Von Frey)” value was over 10 mg/kg. Besides, in data set [2], the half-life at 2 µM is 16.8 h and the “Mouse microsome % 60 min” value worked out at 97%. Moreover, in data set [3], the “Difference in Weight Bearing” value is over 10 mg/kg. The same compound returned an IC50 in [4] of 17 nM. For the same compound, the IC50 in data set [5] worked out at 16000 nM. In addition, in data set [6], the half-life at 2 µM was 9.27 h and the “Rat microsome % 60 min” value was 94%. For the same compound, in data set [7], the “Rat F” value stood at 97%, the half-life was 6.3 h and the Vd worked out at 1 L/kg. Moreover, in data set [8], the half-life at 2 µM was determined as 23.4 h and the “Human microsome % 60 min” value is on record as 98%.
For the compound `COc1cc(OC)cc(-c2cc(COC(C)(C)C(=O)O)nn2Cc2ccccc2Cl)c1` [Example 224, 2-([1-[(2-Chlorophenyl)methyl]-5-(3,5-di-methoxyphenyl)-1H-pyrazol-3-yl]methoxy)-2-methylpropanoic acid], the “Mechanical Allodynia (Von Frey)” value in data set [1] was at most 10 mg/kg. In addition, in data set [2], the half-life at 2 µM worked out at 13.8 h and the “Mouse microsome % 60 min” value amounted to 98%. In data set [3], the “Difference in Weight Bearing” value was at most 10 mg/kg. Moreover, the IC50 in data set [4] worked out at 4.1 nM. Half-maximal inhibition in data set [5] (IC50) required 30000 nM. In addition, in data set [6], the half-life at 2 µM was 2.2 h and the “Rat microsome % 60 min” value is 73%. In data set [7], the “Rat F” value is 53%, the half-life was 2.6 h and the Vd worked out at 1.3 L/kg. For the same compound, in data set [8], the half-life at 2 µM is 12.3 h and the “Human microsome % 60 min” value was determined as 91%.
Take `CC(C)(OCc1cc(-c2cccc(OC3CCC3)c2)n(-c2ccccc2N2CCC2)n1)C(=O)O` [Example 260, 2-([1-[2-(Azetidin-1-yl)phenyl]-5-(3-cyclobutoxyphenyl)-1H-pyrazol-3-yl]methoxy)-2-methylpropanoic acid]: the “Mechanical Allodynia (Von Frey)” value in data set [1] was 1 mg/kg. In addition, in data set [3], the “Difference in Weight Bearing” value was determined as 1 mg/kg. For the same compound, in data set [9], the “Mouse F” value is 86%, the half-life is 5.2 h and the Vd was 0.22 L/kg. Also, in data set [4], the IC50 amounted to 0.83 nM. The same compound displayed an IC50 in [5] of 26000 nM. In data set [7], the “Rat F” value is 85%, the half-life is 3.7 h and the Vd was 0.2 L/kg.
For `CCOc1ccccc1Cn1nc(CO[C@](C)(CC)C(=O)O)cc1-c1cc(OC)cc(OC)c1` [Example 264, (2R)-2-([5-(3,5-Dimethoxyphenyl)-1-[(2-ethoxyphenyl)methyl]-1H-pyrazol-3-yl]methoxy)-2-methylbutanoic acid], the “Mechanical Allodynia (Von Frey)” value in data set [1] came out at 1 mg/kg. Besides, the “Difference in Weight Bearing” value in [3] turned out to be 1 mg/kg. In addition, in [9], the “Mouse F” value stood at 94%, the half-life is 2.7 h and the Vd was determined as 1.1 L/kg. In data set [4], half-maximal inhibition (IC50) required 0.35 nM. The compound further gave an IC50 in data set [5] of 10000 nM. Further, in [7], the “Rat F” value amounted to 100%, the half-life is 4.6 h and the Vd is 2.5 L/kg.
For the compound `CC[C@@](C)(OCc1cc(-c2cccc(OC3CC3)c2)n(-c2ccccc2N2CCC2)n1)C(=O)O` [Example 266], the “Mechanical Allodynia (Von Frey)” value in data set [1] stood at 3 mg/kg. For the same compound, the “Difference in Weight Bearing” value in data set [3] turned out to be 3 mg/kg. Also, in data set [9], the “Mouse F” value amounted to 100%, the half-life was 3.8 h and the Vd came to 0.36 L/kg. The compound also showed an IC50 in data set [4] of 0.36 nM. This compound also registered an IC50 in [5] of 64000 nM. Further, in data set [7], the “Rat F” value is on record as 100%, the half-life was 2.7 h and the Vd is 0.23 L/kg.

The values are drawn from US10214492B2, “Heterocyclic inhibitors of MCT4” (Vettore, LLC, priority 2016, dated 2019).
